Laboratory results taken from ChEMBL document CHEMBL6083208, “Integrating amino acids into Bcr-Abl inhibitors: design, synthesis, biological evaluation, and in silico studies” (RSC Med Chem, 2024).
pIC50: −log10 of the molar value. Blank lines part the entries; values can stand above or below the compound they belong to. Activity calls are given as the source filed them. The rule behind the calls is not given here.

Legend:
HEK293 = test: Antiproliferative activity against HEK293 cells after 48 hrs by MTT assay; type: toxicity, cell-based; parameters: concentration or dose not given beside the values; details: human, hek293, 48 h
THP-1 = test: Antiproliferative activity against human THP-1 cells after 48 hrs by MTT assay; type: functional; parameters: concentration or dose not given beside the values
K562 [1] = test: cells; details: Homo sapiens, K562, 48 h
K562 [2] = test: cells; details: Homo sapiens, K562, 48 h, read-out: Activity
K562 [3] = test: cells; details: Homo sapiens, K562, 48 h, read-out: Activity; remark: listed apart in the source
K562 [4] = test: cells; details: Homo sapiens, K562, 48 h, read-out: Activity; remark: listed apart in the source
Bcr/Abl fusion protein = Bcr/Abl fusion protein (Homo sapiens, UniProt P00519); test: Inhibition of wild type Bcr-Abl (unknown origin) using Abltide as substrate incubated for 1 hr by luminescence based ADP-glo assay; type: protein assay
Bcr/Abl fusion protein, sequence (P00519 whole entry, the tested form may be a part): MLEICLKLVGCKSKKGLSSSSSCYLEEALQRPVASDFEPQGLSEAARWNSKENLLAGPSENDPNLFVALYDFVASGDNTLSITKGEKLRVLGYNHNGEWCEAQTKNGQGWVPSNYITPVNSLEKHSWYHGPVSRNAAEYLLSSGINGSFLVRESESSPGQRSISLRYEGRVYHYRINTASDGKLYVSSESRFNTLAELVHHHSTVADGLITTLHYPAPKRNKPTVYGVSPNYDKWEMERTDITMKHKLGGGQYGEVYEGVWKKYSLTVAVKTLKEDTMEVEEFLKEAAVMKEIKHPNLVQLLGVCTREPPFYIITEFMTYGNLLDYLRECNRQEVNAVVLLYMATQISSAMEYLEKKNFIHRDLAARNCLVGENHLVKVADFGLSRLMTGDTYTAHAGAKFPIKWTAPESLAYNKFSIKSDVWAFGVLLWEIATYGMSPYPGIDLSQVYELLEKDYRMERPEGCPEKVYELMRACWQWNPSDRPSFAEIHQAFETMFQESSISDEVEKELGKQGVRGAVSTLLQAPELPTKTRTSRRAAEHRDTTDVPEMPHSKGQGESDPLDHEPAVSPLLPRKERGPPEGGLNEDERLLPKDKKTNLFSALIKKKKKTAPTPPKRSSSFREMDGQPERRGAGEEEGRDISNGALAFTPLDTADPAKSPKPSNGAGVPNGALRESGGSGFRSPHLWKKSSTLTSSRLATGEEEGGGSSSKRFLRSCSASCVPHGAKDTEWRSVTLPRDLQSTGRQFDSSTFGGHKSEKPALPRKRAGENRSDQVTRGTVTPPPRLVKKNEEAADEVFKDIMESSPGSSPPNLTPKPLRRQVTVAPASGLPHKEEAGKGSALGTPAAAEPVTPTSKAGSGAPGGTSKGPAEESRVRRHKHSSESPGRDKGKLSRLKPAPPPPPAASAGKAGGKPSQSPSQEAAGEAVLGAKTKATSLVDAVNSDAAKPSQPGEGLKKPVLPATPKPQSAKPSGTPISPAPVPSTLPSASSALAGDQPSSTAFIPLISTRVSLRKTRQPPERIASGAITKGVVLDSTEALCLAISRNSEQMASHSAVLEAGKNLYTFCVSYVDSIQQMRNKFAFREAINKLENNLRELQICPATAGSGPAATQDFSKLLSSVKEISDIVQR
Bcr/Abl fusion protein, sequence (P11274 whole entry, further chain, the tested form may be a part): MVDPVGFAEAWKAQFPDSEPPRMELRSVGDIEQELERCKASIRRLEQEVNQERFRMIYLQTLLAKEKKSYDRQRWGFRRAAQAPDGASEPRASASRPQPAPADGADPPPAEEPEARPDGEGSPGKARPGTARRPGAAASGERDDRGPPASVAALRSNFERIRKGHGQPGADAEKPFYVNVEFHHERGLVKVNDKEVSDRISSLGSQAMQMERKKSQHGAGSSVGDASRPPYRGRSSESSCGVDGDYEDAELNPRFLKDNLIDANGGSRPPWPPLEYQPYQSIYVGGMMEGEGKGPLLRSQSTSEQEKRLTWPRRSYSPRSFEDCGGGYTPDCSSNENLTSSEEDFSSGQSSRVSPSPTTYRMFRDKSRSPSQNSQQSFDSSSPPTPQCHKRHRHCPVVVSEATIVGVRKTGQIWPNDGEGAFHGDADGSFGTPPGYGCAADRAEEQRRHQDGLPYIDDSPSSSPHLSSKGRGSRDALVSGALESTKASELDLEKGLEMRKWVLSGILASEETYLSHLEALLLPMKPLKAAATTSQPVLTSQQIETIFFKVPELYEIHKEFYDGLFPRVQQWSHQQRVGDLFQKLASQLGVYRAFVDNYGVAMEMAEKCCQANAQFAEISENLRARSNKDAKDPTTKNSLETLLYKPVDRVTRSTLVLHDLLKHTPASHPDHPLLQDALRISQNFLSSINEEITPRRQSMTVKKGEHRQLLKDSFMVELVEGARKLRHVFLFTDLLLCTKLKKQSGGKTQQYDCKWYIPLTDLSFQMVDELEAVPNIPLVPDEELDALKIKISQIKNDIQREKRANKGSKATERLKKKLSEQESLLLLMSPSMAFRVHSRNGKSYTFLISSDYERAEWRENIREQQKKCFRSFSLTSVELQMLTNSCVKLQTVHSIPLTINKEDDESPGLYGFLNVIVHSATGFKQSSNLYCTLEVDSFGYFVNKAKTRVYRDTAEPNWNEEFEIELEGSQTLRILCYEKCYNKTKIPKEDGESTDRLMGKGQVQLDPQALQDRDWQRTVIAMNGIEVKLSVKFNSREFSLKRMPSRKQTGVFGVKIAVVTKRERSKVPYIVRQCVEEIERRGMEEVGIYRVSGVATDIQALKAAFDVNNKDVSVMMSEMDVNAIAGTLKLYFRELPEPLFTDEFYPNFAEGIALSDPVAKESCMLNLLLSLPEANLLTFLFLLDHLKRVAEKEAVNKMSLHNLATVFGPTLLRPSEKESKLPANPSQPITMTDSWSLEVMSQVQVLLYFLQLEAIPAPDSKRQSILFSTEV

[5] = Inhibition of Bcr-Abl T315Ialpha mutant (unknown origin) using Abltide as substrate incubated for 1 hr by luminescence based ADP-glo assay; parameters: species or system Homo sapiens
BaF3 [6] = test: Antiproliferative activity against mouse BaF3 cells harbouring Bcr-Abl T315I assessed of cell viability at 30 uM incubated for 72 hrs by Celltiter-glo luminescent cell viability assay relative to control; type: functional
BaF3 [7] = test: Antiproliferative activity against mouse BaF3 cells harbouring Bcr-Abl T315I assessed of cell viability at 10 uM incubated for 72 hrs by Celltiter-glo luminescent cell viability assay relative to control; type: functional
BaF3 [8] = test: Antiproliferative activity against mouse BaF3 cells harbouring Bcr-Abl T315I assessed of cell viability at 2 uM incubated for 72 hrs by Celltiter-glo luminescent cell viability assay relative to control; type: functional
K562 [9] = test: Induction of apoptosis in human K562 cells assessed as viable cells at 1 uM measured after 48 hrs by annexin-V/FITC and propidium iodide double staining based flow cytometry analysis (reference value: 85.73%); type: functional; details: read-out: Activity
K562 [10] = test: Induction of apoptosis in human K562 cells assessed as viable cells at 10 uM measured after 48 hrs by annexin-V/FITC and propidium iodide double staining based flow cytometry analysis (reference value: 85.73%); type: functional; details: read-out: Activity
K562 [11] = test: Induction of apoptosis in human K562 cells assessed as viable cells at 15 uM measured after 48 hrs by annexin-V/FITC and propidium iodide double staining based flow cytometry analysis (reference value: 85.73%); type: functional; details: read-out: Activity
K562 [12] = test: Induction of apoptosis in human K562 cells assessed as early apoptotic cells at 1 uM measured after 48 hrs by annexin-V/FITC and propidium iodide double staining based flow cytometry analysis (reference value: 1.96%); type: functional
K562 [13] = test: Induction of apoptosis in human K562 cells assessed as early apoptotic cells at 10 uM measured after 48 hrs by annexin-V/FITC and propidium iodide double staining based flow cytometry analysis (reference value: 1.96%); type: functional
K562 [14] = test: Induction of apoptosis in human K562 cells assessed as early apoptotic cells at 15 uM measured after 48 hrs by annexin-V/FITC and propidium iodide double staining based flow cytometry analysis (reference value: 1.96%); type: functional
K562 [15] = test: Induction of apoptosis in human K562 cells assessed as late apoptotic cells at 1 uM measured after 48 hrs by annexin-V/FITC and propidium iodide double staining based flow cytometry analysis (reference value: 12.03%); type: functional
K562 [16] = test: Induction of apoptosis in human K562 cells assessed as late apoptotic cells at 10 uM measured after 48 hrs by annexin-V/FITC and propidium iodide double staining based flow cytometry analysis (reference value: 12.03%); type: functional
K562 [17] = test: Induction of apoptosis in human K562 cells assessed as late apoptotic cells at 15 uM measured after 48 hrs by annexin-V/FITC and propidium iodide double staining based flow cytometry analysis (reference value: 12.03%); type: functional
K562 [18] = test: Induction of apoptosis in human K562 cells assessed as necrotic cells at 1 uM measured after 48 hrs by annexin-V/FITC and propidium iodide double staining based flow cytometry analysis (reference value: 0.27%); type: functional
K562 [19] = test: Induction of apoptosis in human K562 cells assessed as necrotic cells at 10 uM measured after 48 hrs by annexin-V/FITC and propidium iodide double staining based flow cytometry analysis (reference value: 0.27%); type: functional
K562 [20] = test: Induction of apoptosis in human K562 cells assessed as necrotic cells at 15 uM measured after 48 hrs by annexin-V/FITC and propidium iodide double staining based flow cytometry analysis (reference value: 0.27%); type: functional
K562 [21] = test: Induction of cell cycle arrest in human K562 cells assessed as reduction in accumulation of cells at S phase at 1 to 15 uM measured after 48 hrs by PI staining based flow cytometry analysis; type: functional; details: dose 1-15 µM
K562 [22] = test: Induction of cell cycle arrest in human K562 cells assessed as increase in accumulation of cells at G0/G1 phase at 1 to 15 uM measured after 48 hrs by PI staining based flow cytometry analysis; type: functional; details: dose 1-15 µM
[23] = molecular target: T1, Bcr/Abl fusion protein (Homo sapiens) (UniProt P00519+P11274); test: Inhibition of wild type BCR-ABL in human K562 cells assessed as inhibition of Bcr-Abl phosphorylation level at high concentration measured after 48 hrs by Western blot analysis; type: cell-based
T1 sequence (P00519 whole entry, looked up, the tested form may be a part): as the sequence (P00519 whole entry, the tested form may be a part) above
T1 sequence (P11274 whole entry, looked up, the tested form may be a part): as the sequence (P11274 whole entry, further chain, the tested form may be a part) above

[24] = molecular target: T1, Bcr/Abl fusion protein (Homo sapiens); test: Inhibition of wild type BCR-ABL in human K562 cells assessed as inhibition of STAT5 phosphorylation level at high concentration measured after 48 hrs by Western blot analysis; type: cell-based
[25] = molecular target: T1, Bcr/Abl fusion protein (Homo sapiens); test: Inhibition of wild type BCR-ABL in human K562 cells assessed as inhibition of Bcr-Abl phosphorylation level at 20 uM measured after 48 hrs by Western blot analysis; type: cell-based
[26] = molecular target: T1, Bcr/Abl fusion protein (Homo sapiens); test: Inhibition of wild type BCR-ABL in human K562 cells assessed as inhibition of STAT5 phosphorylation level at 20 uM measured after 48 hrs by Western blot analysis; type: cell-based

Compound: Cc1ccc(NC(=O)c2ccc(CN3CCN(C)CC3)cc2)cc1Nc1nccc(-c2cccnc2)n1 [IMATINIB]
Activity (HEK293): 87%
Activity (THP-1): 100%
pIC50 (K562 [1]): 8.69
viability at 1 µM (K562 [2]): 72.9%
viability at 5 µM (K562 [3]): 74.3%
viability at 10 µM (K562 [4]): 67.4%

pIC50 (Bcr/Abl fusion protein): 8.30
pIC50 [5]: 6.91
inhibition [23]: Active
inhibition [24]: Active
inhibition [25]: Active
inhibition [26]: Active
pIC50 (K562 [1]): 8.69
Compound: CC(C)(C)C(=O)Nc1cc(-c2ccc(C(=O)N[C@@H](CO)C(=O)Nc3ccc(Cl)c(C(F)(F)F)c3)cc2)ccn1
inhibition at 30 µM (BaF3 [6]): 99.2%
inhibition at 10 µM (BaF3 [7]): 99.9%
inhibition at 2 µM (BaF3 [8]): 0.2%
Activity (HEK293): 87%
Activity (THP-1): 54%
viability at 1 µM (K562 [9]): 76.5%
viability at 10 µM (K562 [10]): 74.4%
viability at 15 µM (K562 [11]): 69.6%
Activity (K562 [12]): 5.12%
Activity (K562 [13]): 2.83%
Activity (K562 [14]): 2.21%
Activity (K562 [15]): 16.63%
Activity (K562 [16]): 21.34%
Activity (K562 [17]): 24.21%
Activity (K562 [18]): 1.75%
Activity (K562 [19]): 1.39%
Activity (K562 [20]): 3.98%
Activity (K562 [21]): inactive
Activity (K562 [22]): inactive
